Measurements as given in patent US7498349B2, “Biaryl compounds having anti-infective activity” (Genesoft Pharmaceuticals, Inc., priority 2002, dated 2009).

Legend:
B. cereus ATCC 11778 = assay: MIC, NCCLS broth microdilution assay; type: cell-based, Bacillus cereus; conditions: B. cereus ATCC 11778
[1] = test system: S. epidermidis ATCC 12228; assay: MIC, NCCLS broth microdilution assay; type: cell-based, Staphylococcus epidermidis
From the text: (§1) In vitro biological activity data were collected for a variety of microorganisms, including Bacillus cereus (ATCC 11778), Staphylococcus aureus (ATCC 33591; ATCC 27660, a methicillin resistant strain (MRSA); ATCC 13709, a methicillin sensitive strain (MSSA)), Escherichia coli (ATCC 25922), Enterococcus faecalis (ATCC 29212), Streptococcus pneumoniae (ATCC 49619; ATCC 51422, a penicillin resistant strain (PRSP)), Enterococcus faecium (ATCC 51559, a vancomycin resistant strain (VRE)), and Staphylococcus epidermidis (ATCC 12228).
(§2) The minimal inhibition concentration (MIC) of these compounds was determined using the National Committee for Clinical Laboratory Standards (NCCLS) broth microdilution assay in microtiter plates, as set forth in: (1) the guidelines of the National Committee for Clinical Laboratory Standards (NCCLS) Document M7-A4 (NCCLS, 1997); (2) the guidelines of the National Committee for Clinical Laboratory Standards (NCCLS) Document M11-A4 (NCCLS, 1997); and (3) the guidelines and reference method of the National Committee for Clinical Laboratory Standards (NCCLS) Document M27 -T (NCCLS, 1995).

E. coli ATCC 25922 = assay: MIC, NCCLS broth microdilution assay; type: cell-based, Escherichia coli; conditions: E. coli ATCC 25922
S. pneumoniae ATCC 49619 = assay: MIC, NCCLS broth microdilution assay; type: cell-based, Streptococcus pneumoniae; conditions: S. pneumoniae ATCC 49619
E. faecalis ATCC 29212 = assay: MIC, NCCLS broth microdilution assay; type: cell-based, Enterococcus faecalis; conditions: E. faecalis ATCC 29212
C. albicans ATCC 38247 = assay: MIC, antifungal assay; type: cell-based, Candida albicans; conditions: C. albicans ATCC 38247
From the text: In vitro biological activity data were collected for a variety of microorganisms, including Bacillus cereus (ATCC 11778), Staphylococcus aureus (ATCC 33591; ATCC 27660, a methicillin resistant strain (MRSA); ATCC 13709, a methicillin sensitive strain (MSSA)), Escherichia coli (ATCC 25922), Enterococcus faecalis (ATCC 29212), Streptococcus pneumoniae (ATCC 49619; ATCC 51422, a penicillin resistant strain (PRSP)), Enterococcus faecium (ATCC 51559, a vancomycin resistant strain (VRE)), and Staphylococcus epidermidis (ATCC 12228). Additionally, antifungal activity data were collected for Candida albicans (ATCC 38247).
The minimal inhibition concentration (MIC) of these compounds was determined using the National Committee for Clinical Laboratory Standards (NCCLS) broth microdilution assay in microtiter plates, as set forth in: (1) the guidelines of the National Committee for Clinical Laboratory Standards (NCCLS) Document M7-A4 (NCCLS, 1997); (2) the guidelines of the National Committee for Clinical Laboratory Standards (NCCLS) Document M11-A4 (NCCLS, 1997); and (3) the guidelines and reference method of the National Committee for Clinical Laboratory Standards (NCCLS) Document M27 -T (NCCLS, 1995). For antifungal assays, the method recommended in Murray, PR., 1995 Manual of Clinical Microbiology (ASM Press, Washington, D.C.), was employed.

S. aureus ATCC 13709 = assay: MIC, NCCLS broth microdilution assay; type: cell-based, Staphylococcus aureus; conditions: S. aureus ATCC 13709, methicillin sensitive strain (MSSA)
From the text: as §1, §2

S. aureus ATCC 27660 = assay: MIC, NCCLS broth microdilution assay; type: cell-based, Staphylococcus aureus; conditions: S. aureus ATCC 27660, methicillin resistant strain (MRSA)
From the text: as §1, §2

S. aureus ATCC 33591 = assay: MIC, NCCLS broth microdilution assay; type: cell-based, Staphylococcus aureus; conditions: S. aureus ATCC 33591

| Compound | Minimum Inhibitory Concentration (MIC) (B. cereus ATCC 11778) | Minimum Inhibitory Concentration (MIC) [1] | Minimum Inhibitory Concentration (MIC) (E. coli ATCC 25922) | Minimum Inhibitory Concentration (MIC) (S. pneumoniae ATCC 49619) | Minimum Inhibitory Concentration (MIC) (E. faecalis ATCC 29212) | Minimum Inhibitory Concentration (MIC) (C. albicans ATCC 38247) | Minimum Inhibitory Concentration (MIC) (S. aureus ATCC 13709) | Minimum Inhibitory Concentration (MIC) (S. aureus ATCC 27660) | Minimum Inhibitory Concentration (MIC) (S. aureus ATCC 33591) |
| --- | --- | --- | --- | --- | --- | --- | --- | --- | --- |
| O=C(Nc1ccc(-c2cc3ccccc3o2)cc1)c1cccnc1NCCCNC1CCCCC1 [Compound A-12] | + (12 ≦ MIC ≦ 32) | + (12 ≦ MIC ≦ 32) | >32 µg/mL | ++ (4 < MIC < 12) | ++ (4 < MIC < 12) | + (12 ≦ MIC ≦ 32) | – | – | – |
| O=C(Nc1ccc(-c2cc3ccccc3o2)nc1)c1ccc(Cl)cc1NCCN1CCNCC1 [Compound A-42] | ++ (4 < MIC < 12) | ++ (4 < MIC < 12) | >32 µg/mL | + (12 ≦ MIC ≦ 32) | ++ (4 < MIC < 12) | >32 µg/mL | ++ (4 < MIC < 12) | ++ (4 < MIC < 12) | – |
| NCCNc1snc(C(=O)Nc2ccc(-c3cc4ccccc4[nH]3)cc2)c1Cl [Compound A-56] | >32 µg/mL | – | >32 µg/mL | >32 µg/mL | + (12 ≦ MIC ≦ 32) | + (12 ≦ MIC ≦ 32) | ++ (4 < MIC < 12) | ++ (4 < MIC < 12) | ++ (4 < MIC < 12) |
| CN(C)CCCNc1snc(C(=O)Nc2ccc(-c3cc4ccccc4[nH]3)cc2)c1Cl [Compound A-57] | + (12 ≦ MIC ≦ 32) | – | >32 µg/mL | >32 µg/mL | ++ (4 < MIC < 12) | +++ (MIC ≦ 4) | ++ (4 < MIC < 12) | ++ (4 < MIC < 12) | + (12 ≦ MIC ≦ 32) |
| O=C(Nc1ccc(-c2cc3ccccc3[nH]2)cc1)c1nsc(NCCN2CCCC2)c1Cl [Compound A-58] | + (12 ≦ MIC ≦ 32) | – | >32 µg/mL | + (12 ≦ MIC ≦ 32) | ++ (4 < MIC < 12) | +++ (MIC ≦ 4) | + (12 ≦ MIC ≦ 32) | ++ (4 < MIC < 12) | ++ (4 < MIC < 12) |
| O=C(Nc1ccc(-c2cc3ccccc3[nH]2)cc1)c1nsc(NCCN2CCNCC2)c1Cl [Compound A-59] | + (12 ≦ MIC ≦ 32) | – | >32 µg/mL | + (12 ≦ MIC ≦ 32) | +++ (MIC ≦ 4) | +++ (MIC ≦ 4) | ++ (4 < MIC < 12) | ++ (4 < MIC < 12) | + (12 ≦ MIC ≦ 32) |
| O=C(Nc1ccc(-c2cc3ccccc3[nH]2)cc1)c1nsc(NCCN2CCOCC2)c1Cl [Compound A-60] | >32 µg/mL | – | >32 µg/mL | >32 µg/mL | >32 µg/mL | >32 µg/mL | >32 µg/mL | >32 µg/mL | >32 µg/mL |
| CN1CCN(CCNc2snc(C(=O)Nc3ccc(-c4cc5ccccc5[nH]4)cc3)c2Cl)CC1 [Compound A-61] | >32 µg/mL | – | >32 µg/mL | >32 µg/mL | >32 µg/mL | +++ (MIC ≦ 4) | >32 µg/mL | >32 µg/mL | >32 µg/mL |
| O=C(Nc1ccc(-c2cc3ccccc3[nH]2)cc1)c1cccnc1NCCN1CCOCC1 [Compound A-66] | >32 µg/mL | – | >32 µg/mL | >32 µg/mL | >32 µg/mL | >32 µg/mL | >32 µg/mL | >32 µg/mL | >32 µg/mL |
| CN(C)CCCNc1snc(C(=O)Nc2ccc(-c3cc4ccccc4s3)nc2)c1Cl [Compound A-67] | +++ (MIC ≦ 4) | – | >32 µg/mL | >32 µg/mL | +++ (MIC ≦ 4) | +++ (MIC ≦ 4) | +++ (MIC ≦ 4) | +++ (MIC ≦ 4) | +++ (MIC ≦ 4) |
| O=C(Nc1ccc(-c2cc3ccccc3s2)nc1)c1nsc(NCCN2CCCCC2)c1Cl [Compound A-69] | >32 µg/mL | – | >32 µg/mL | >32 µg/mL | >32 µg/mL | >32 µg/mL | >32 µg/mL | >32 µg/mL | >32 µg/mL |
| O=C(Nc1ccc(-c2cc3ccccc3s2)nc1)c1nsc(NCCN2CCNCC2)c1Cl [Compound A-70] | >32 µg/mL | – | >32 µg/mL | >32 µg/mL | +++ (MIC ≦ 4) | +++ (MIC ≦ 4) | +++ (MIC ≦ 4) | +++ (MIC ≦ 4) | +++ (MIC ≦ 4) |
| CN(CCCN)CCCNc1snc(C(=O)Nc2ccc(-c3cc4ccccc4s3)nc2)c1Cl [Compound A-71] | +++ (MIC ≦ 4) | – | +++ (MIC ≦ 4) | + (12 ≦ MIC ≦ 32) | +++ (MIC ≦ 4) | ++ (4 < MIC < 12) | +++ (MIC ≦ 4) | +++ (MIC ≦ 4) | +++ (MIC ≦ 4) |
| O=C(Nc1ccc(-c2cc3ccccc3s2)nc1)c1cccnc1NCCN1CCCCC1 [Compound A-72] | >32 µg/mL | – | >32 µg/mL | >32 µg/mL | >32 µg/mL | >32 µg/mL | >32 µg/mL | >32 µg/mL | >32 µg/mL |
| O=C(Nc1ccc(-c2cc3ccccc3s2)nc1)c1cccnc1NCCN1CCNCC1 [Compound A-73] | >32 µg/mL | – | >32 µg/mL | >32 µg/mL | >32 µg/mL | >32 µg/mL | >32 µg/mL | >32 µg/mL | >32 µg/mL |
| CN(C)CCCNc1ncccc1C(=O)Nc1ccc(-c2cc3ccccc3s2)nc1 [Compound A-74] | + (12 ≦ MIC ≦ 32) | – | >32 µg/mL | + (12 ≦ MIC ≦ 32) | ++ (4 < MIC < 12) | + (12 ≦ MIC ≦ 32) | ++ (4 < MIC < 12) | + (12 ≦ MIC ≦ 32) | ++ (4 < MIC < 12) |
| NCCCCNc1ncccc1C(=O)Nc1ccc(-c2cc3ccccc3s2)nc1 [Compound A-75] | +++ (MIC ≦ 4) | – | >32 µg/mL | + (12 ≦ MIC ≦ 32) | +++ (MIC ≦ 4) | >32 µg/mL | +++ (MIC ≦ 4) | +++ (MIC ≦ 4) | +++ (MIC ≦ 4) |
| CN(CCCN)CCCNc1ncccc1C(=O)Nc1ccc(-c2cc3ccccc3s2)nc1 [Compound A-76] | + (12 ≦ MIC ≦ 32) | – | + (12 ≦ MIC ≦ 32) | + (12 ≦ MIC ≦ 32) | ++ (4 < MIC < 12) | + (12 ≦ MIC ≦ 32) | +++ (MIC ≦ 4) | +++ (MIC ≦ 4) | ++ (4 < MIC < 12) |
